ChEMBL document CHEMBL4000241, “Investigation of the anti-angiogenesis effects induced by deoxypodophyllotoxin-5-FU conjugate C069 against HUVE cells” (Bioorg Med Chem Lett, 2017)
Calls of active or inactive are those of the source. The calls are words filed in the database; no cut-off is given here.

How the values were obtained:
[1] = tested on: WI-38; test: Antiproliferative activity against human WI38 cells at 30 uM after 12 to 48 hrs by MTT assay; assay type: cell-based; settings: wi-38, 30 µM
[2] = biological target: T1, Catenin beta-1 (Homo sapiens) (UniProt P35222); test: Inhibition of beta-catenin phosphorylation in HUVEC after 24 hrs by Western blot analysis
T1 sequence (whole entry): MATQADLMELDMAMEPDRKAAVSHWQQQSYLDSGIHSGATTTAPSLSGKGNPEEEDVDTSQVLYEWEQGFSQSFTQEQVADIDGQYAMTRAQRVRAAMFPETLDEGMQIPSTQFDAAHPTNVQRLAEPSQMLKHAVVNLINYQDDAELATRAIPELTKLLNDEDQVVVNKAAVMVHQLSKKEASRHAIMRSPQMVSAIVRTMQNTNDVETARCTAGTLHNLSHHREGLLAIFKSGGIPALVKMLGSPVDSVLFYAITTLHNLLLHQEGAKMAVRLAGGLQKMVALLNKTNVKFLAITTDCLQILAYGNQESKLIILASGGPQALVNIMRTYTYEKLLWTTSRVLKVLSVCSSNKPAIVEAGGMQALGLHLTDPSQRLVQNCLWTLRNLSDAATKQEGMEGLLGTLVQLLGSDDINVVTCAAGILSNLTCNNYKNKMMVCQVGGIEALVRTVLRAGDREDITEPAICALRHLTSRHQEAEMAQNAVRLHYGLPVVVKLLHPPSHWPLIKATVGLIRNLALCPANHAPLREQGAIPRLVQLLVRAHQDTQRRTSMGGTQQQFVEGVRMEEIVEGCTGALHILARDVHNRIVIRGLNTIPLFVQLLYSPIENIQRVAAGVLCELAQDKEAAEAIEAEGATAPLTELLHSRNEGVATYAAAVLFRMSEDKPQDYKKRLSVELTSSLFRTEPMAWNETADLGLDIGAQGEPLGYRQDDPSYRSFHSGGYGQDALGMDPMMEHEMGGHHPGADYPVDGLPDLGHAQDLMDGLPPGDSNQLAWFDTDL

[3] = tested on: HUVEC; test: Antimigratory activity in HUVEC assessed as reduction in wound-healing at 0.1 to 0.3 uM after 12 hrs by inverted phase contrast microscopy; assay type: functional, cell-based; settings: Homo sapiens
[4] = tested on: WI-38; test: Antiproliferative activity against human WI38 cells at 20 to 100 uM after 12 to 48 hrs by MTT assay; assay type: cell-based; settings: wi-38, 100 µM
[5] = tested on: HUVEC; test: Vascular disrupting activity in HUVEC assessed as disruption of preformed tube like structure after 6 hrs by inverted phase contrast microscopy based matrigel assay; assay type: functional, cell-based; settings: Homo sapiens
[6] = tested on: Chorioallantoic membrane; test: Antiangiogenic activity in chicken fertilized egg chorioallantoic membrane assessed as reduction in branching of blood vessels after 48 hrs; assay type: functional, tissue-based; settings: Gallus gallus
[7] = tested on: HUVEC; test: Downregulation of MMP-9 expression in HUVEC at 0.2 to 0.5 uM after 24 hrs by Western blot analysis; assay type: functional, cell-based; settings: Homo sapiens
[8] = tested on: HUVEC; test: Antiproliferative activity against HUVEC at 0.1 to 0.3 uM after 6 hrs by MTT assay; assay type: functional, cell-based; settings: Homo sapiens
[9] = tested on: HUVEC; test: Antiangiogenic activity in HUVEC assessed as inhibition of formation of tubular structures after 6 hrs by inverted phase contrast microscopy based matrigel assay; assay type: functional, cell-based; settings: Homo sapiens
[10] = tested on: HUVEC; test: Downregulation of MMP-2 expression in HUVEC at 0.2 to 0.5 uM after 24 hrs by Western blot analysis; assay type: functional, cell-based; settings: Homo sapiens
[11] = organism: Homo sapiens; test: Inhibition of Akt phosphorylation in HUVEC after 24 hrs by Western blot analysis

## COc1cc([C@@H]2c3cc4c(cc3[C@@H](O[C@@H]3O[C@@H]5CO[C@@H](C)O[C@H]5[C@H](O)[C@H]3O)[C@H]3COC(=O)[C@H]23)OCO4)cc(OC)c1O [ETOPOSIDE]
[1]
  Activity: Non-Toxic

## COc1cc([C@@H]2c3cc4c(cc3C[C@H]3COC(=O)[C@@H]32)OCO4)cc(OC)c1OC(=O)CCC(=O)NCCCCCCNC(=O)Cn1cc(F)c(=O)[nH]c1=O
[2]
  inhibition: Dose-dependent effect
[3]
  Activity: Active
[4]
  Activity: Non-Toxic
[5]
  Activity: Dose-dependent effect
[6]
  Activity: Dose-dependent effect
[7]
  Activity: Active
[8]
  Activity: Active
[9]
  Activity: Dose-dependent effect
[10]
  Activity: Active
[11]
  inhibition: Dose-dependent effect
